Laboratory results taken from US20230322724A1, “HETEROCYCLIC COMPOUNDS AS CBP/EP300 BROMODOMAIN INHIBITORS” (AURIGENE ONCOLOGY LIMITED, priority 2020, published 2023).
Read-outs that look alike come from different tables or passages of the source.

Columns and labels:
[1] = biological target: T1, recombinant BRD4 FL bromodomain (Homo sapiens, UniProt O60885); experiment: BRD4 FL TR-FRET displacement assay; format: binding; conditions: for IC50: dose-response, read-out: IC50 (group A, B, C); for inhibition at 10 µM: read-out: % Inhibition (10 μM)
T1 construct: fused on or other part: 6xHis tag, inferred from detection with Mab ANTI 6HIS-XL665
Protocol: The potency of compounds to inhibit BRD4 FL enzyme was tested in a TR-FRET displacement assay using recombinant BRD4 FL bromodomain obtained In-house. The assay buffer was 50 mM HEPES (pH 7.5), 50 mM NaCl, 500 μM CHAPS. 10 nM of BRD4 FL & 300 nM of Biotinylated Acetyl histone H4 (Lys 5, 8, 12, 16) (Millipore, USA) was incubated at room temperature for 30 minutes, the reaction was initiated by adding the pre-incubated enzyme ligand mixture to the test compounds. After 30 min incubation, the reaction was stopped by the addition of stop mix containing 1 nM of Europium Streptavidin cryptate (Cisbio, USA) and 5 nM of Mab ANTI 6HIS-XL665 (Cisbio, USA) dilutes in assay buffer containing 2.4M Potassium Fluoride. Fluorescence emission of the samples at 665 and 615 nm were measured at an excitation of 340 nm and their ratio was plotted against the compound concentrations to generate dose-response curve. The percent inhibition of the test compounds is calculated using the ratio of enzyme activity controls.
Selected compounds of the present invention were screened in the above-mentioned assay procedures and IC50 values were determined by fitting the dose-response data to sigmoidal curve fitting equation using Graph pad prism software V7.

[2] = biological target: T2, recombinant CREBBP bromodomain (Homo sapiens, UniProt Q92793); experiment: CBP TR-FRET displacement assay; format: binding; conditions: dose-response, read-out: IC50 (group A, B, C)
T2 construct: recombinant CREBBP bromodomain obtained from BPS Bioscience, USA; purchased BPS Bioscience, USA
T2 sequence (Q92793 1085-1192 limits assumed): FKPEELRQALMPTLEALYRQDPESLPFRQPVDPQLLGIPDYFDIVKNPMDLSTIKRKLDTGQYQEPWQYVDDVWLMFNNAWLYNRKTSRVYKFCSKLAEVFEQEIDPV
Method in brief: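 CREBBP bromodomain (50 nM) preincubated 30 min at room temperature with 500 nM biotinylated ligand in HEPES pH 7.5 buffer with TCEP, then 60 min with compound. Eu-anti-His/APC-streptavidin TR-FRET 665/615 nm ratio read; IC50 from sigmoidal dose-response fit.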

SMILES | IC50 ([1]; BRD4 FL) [µM] | IC50 [2] [nM] | inhibition at 10 µM ([1]; BRD4 FL, compound at 10 μM) [%] | inhibition at 10 µM [1] [%]
COc1cc(N2CCN(C)c3ccc(S(C)(=O)=O)cc32)c2cc(C)c(=O)n(C)c2c1 [Example 100] | 2.01 to 5 | 51 to 100 | – | –
COc1cc(N2CCN(C)c3ccc(S(=O)(=O)Nc4ccccc4)cc32)c2cc(C)c(=O)n(C)c2c1 [Example 102] | 2.01 to 5 | > 10 | – | –
CC(=O)NS(=O)(=O)c1ccc2c(c1)N(c1cccc3c1cc(C)c(=O)n3C)CCN2C [Example 103, N-((4-(1,3-dimethyl-2-oxo-1,2-dihydroquinolin-5-yl)-1-methyl-1,2,3,4-tetrahydroquinoxalin-6-yl)sulfonyl)acetamide] | – | > 10 | 36 | –
COc1cc(N2CCN(C)c3cc(F)c(S(=O)(=O)NC(C)=O)cc32)c2cc(C)c(=O)n(C)c2c1 [Example 104] | – | < 50 | 48 | –
CCC(=O)NS(=O)(=O)c1ccc2c(c1)N(c1cc(OC)cc3c1cc(C)c(=O)n3C)CCN2C [Example 106] | – | 51 to 100 | 16 | –
COc1cc(N2CCN(C)c3ccc(S(=O)(=O)NC(=O)C(F)(F)F)cc32)c2cc(C)c(=O)n(C)c2c1 [Example 107] | – | 51 to 100 | 15 | –
CC(=O)NS(=O)(=O)c1cc2c(cc1-c1cnn(C)c1)N(C)CCN2c1cccc2c1cc(C)c(=O)n2C [Example 112] | – | < 50 | 44 | –
COc1cc(N2CCN(C)c3cc(-c4cnn(C)c4)ncc32)c2cc(C)c(=O)n(C)c2c1 [Example 116, 7-Methoxy-1,3-dimethyl-5-(1-methyl-7-(1-methyl-1H-pyrazol-4-yl)-2,3-dihydropyrido[3,4-b]pyrazin-4(1H)-yl)quinolin-2(1H)-one] | – | 51 to 100 | 50 | –
COc1cc(N2CCN(C)c3cc(-c4cnn(C)c4)nc(C)c32)c2cc(C)c(=O)n(C)c2c1 [Example 127] | – | < 50 | 32 | –
Cc1cc2c(N3CCN(C)c4cc(-c5cnn(C)c5)ncc43)cc(OC(F)F)cc2n(C)c1=O [Example 129] | 2.01 to 5 | > 10 | – | –
Cc1cc2c(N3CCN(C)c4cc(-c5cnn(C)c5)ncc43)cc(OCC(F)F)cc2n(C)c1=O [Example 130] | – | 51 to 100 | 48 | –
Cc1cc2c(N3CCN(C)c4cc(-c5cnn(C)c5)ncc43)cccc2n(C)c1=O [Example 131] | – | > 10 | 52 | –
Cc1cc2c(N3CCN(C)c4cc(-c5cnn(C)c5)ncc43)cc(N3CC(C)OC(C)C3)cc2n(C)c1=O (stereo not drawn) [Example 132] | 2.01 to 5 | < 50 | – | –
Cc1cc2c(N3CCN(C)c4cc(-c5cnn(C)c5)ncc43)cc(N3C[C@@H](C)O[C@@H](C)C3)cc2n(C)c1=O [Example 133] | 2.01 to 5 | 51 to 100 | – | –
COc1ccc(CN2CCN(c3cc(N4CCOCC4)cc4c3cc(C)c(=O)n4C)c3cnc(-c4cnn(C)c4)cc32)cc1 [Example 135] | 2.01 to 5 | 51 to 100 | – | –
Cc1cc2c(N3CCN(C)c4cc(-c5cnn(C(C)C)c5)ncc43)cc(N3CCOCC3)cc2n(C)c1=O [Example 136] | 2.01 to 5 | < 50 | – | –
Cc1cc2c(N3CCN(C)c4cc(-c5cnn(C)c5)ncc43)cc(N3CCOC(C)C3)cc2n(C)c1=O (stereo not drawn) [Example 147] | – | 51 to 100 | 66 | –
Cc1cc2c(N3CCN(C)c4cc(-c5cnn(C)c5)ncc43)cc(N3CCS(=O)(=O)CC3)cc2n(C)c1=O [Example 148] | – | > 10 | 55 | –
Cc1cc2c(N3CCN(C)c4cc(-c5cnn(C)c5)ncc43)cc(N3CCC4(COC4)C3)cc2n(C)c1=O [Example 150] | 2.01 to 5 | < 50 | – | –
Cc1cc2c(N3CCN(C)c4cc(-c5cnn(C)c5)ncc43)cc(C(C)C)cc2n(C)c1=O [Example 151, 7-Isopropyl-1,3-dimethyl-5-(1-methyl-7-(1-methyl-1H-pyrazol-4-yl)-2,3-dihydropyrido[3,4-b]pyrazin-4(1H)-yl)quinolin-2(1H)-one] | – | 51 to 100 | 49 | –

SMILES | IC50 ([1]; BRD4 FL) [µM] | IC50 [2] [nM] | inhibition at 10 µM ([1]; BRD4 FL, compound at 10 μM) [%] | inhibition at 10 µM [1] [%]
Cc1cc2c(N3CCN(C)c4cc(-c5cnn(C)c5)ncc43)cc(C3CCCCC3)cc2n(C)c1=O [Example 152] | – | 51 to 100 | 48 | –
CC(=O)N1CCC(c2cc(N3CCN(C)c4cc(-c5cnn(C)c5)ncc43)c3cc(C)c(=O)n(C)c3c2)CC1 [Example 153] | – | < 50 | 45 | –
Cc1cc2c(N3CCN(C)c4cc(-c5cnn(C)c5)ncc43)cc(C3CCC(F)(F)CC3)cc2n(C)c1=O [Example 154] | 2.01 to 5 | 51 to 100 | – | –
Cc1cc2c(N3CCN(C)c4cc(-c5cnn(C)c5)ncc43)cc(OC(C)C)cc2n(C)c1=O [Example 156, 7-Isopropoxy-1,3-dimethyl-5-(1-methyl-7-(1-methyl-1H-pyrazol-4-yl)-2,3-dihydropyrido[3,4-b]pyrazin-4(1H)-yl)quinolin-2(1H)-one] | – | 51 to 100 | – | 47
Cc1cc2c(N3CCN(C)c4cc(-c5cnn(C)c5)ncc43)cc(OC3CCOC3)cc2n(C)c1=O (stereo not drawn) [Example 157] | – | 51 to 100 | 41 | –
Cc1cc2c(N3CCN(C)c4cc(-c5cnn(C)c5)ncc43)cc(OCc3ncco3)cc2n(C)c1=O [Example 159] | 2.01 to 5 | 51 to 100 | – | –
Cc1cc2c(N3CCNc4cc(-c5cnn(C)c5)ncc43)cc(N3CCOCC3)cc2n(C)c1=O [Example 161, 1,3-Dimethyl-5-(7-(1-methyl-1H-pyrazol-4-yl)-2,3-dihydropyrido[3,4-b]pyrazin-4(1H)-yl)-7-morpholinoquinolin-2(1H)-one] | – | > 10 | 16 | –
CC(=O)N1CCN(c2cc(N3CCOCC3)cc3c2cc(C)c(=O)n3C)c2cnc(-c3cnn(C)c3)cc21 [Example 162, 5-(1-Acetyl-7-(1-methyl-1H-pyrazol-4-yl)-2,3-dihydropyrido[3,4-b]pyrazin-4(1H)-yl)-1,3-dimethyl-7-morpholinoquinolin-2(1H)-one] | 2.01 to 5 | < 50 | – | –
Cc1cc2c(N3CCN(C(F)F)c4cc(-c5cnn(C)c5)ncc43)cc(N3CCOCC3)cc2n(C)c1=O [Example 163, 5-(1-(Difluoromethyl)-7-(1-methyl-1H-pyrazol-4-yl)-2,3-dihydropyrido[3,4-b]pyrazin-4(1H)-yl)-1,3-dimethyl-7-morpholinoquinolin-2(1H)-one] | – | > 10 | – | 16
Cc1cc2c(N3CCN(CC(=O)O)c4cc(-c5cnn(C)c5)ncc43)cc(N3CCOCC3)cc2n(C)c1=O [Example 164, 2-(4-(1,3-Dimethyl-7-morpholino-2-oxo-1,2-dihydroquinolin-5-yl)-7-(1-methyl-1H-pyrazol-4-yl)-3,4-dihydropyrido[3,4-b]pyrazin-1(2H)-yl)acetic acid] | – | 51 to 100 | 38 | –
CNC(=O)CN1CCN(c2cc(N3CCOCC3)cc3c2cc(C)c(=O)n3C)c2cnc(-c3cnn(C)c3)cc21 [Example 165, 2-(4-(1,3-Dimethyl-7-morpholino-2-oxo-1,2-dihydroquinolin-5-yl)-7-(1-methyl-1H-pyrazol-4-yl)-3,4-dihydropyrido[3,4-b]pyrazin-1(2H)-yl)-N-methylacetamide] | – | < 50 | 51 | –
COc1cc(N2CCCc3cc(N4CCN(C(C)=O)CC4)ncc32)c2cc(C)c(=O)n(C)c2c1 [Example 166, 5-(6-(4-Acetylpiperazin-1-yl)-3,4-dihydro-1,7-naphthyridin-1(2H)-yl)-7-methoxy-1,3-dimethylquinolin-2(1H)-one] | 2.01 to 5 | 51 to 100 | – | –
COc1cc(N2CCCc3cc(-c4cnn(C)c4)ncc32)c2cc(C)c(=O)n(C)c2c1 [Example 167] | 2.01 to 5 | < 50 | – | –
COc1cc(N2CCOc3cc(-c4cnn(C)c4)ncc32)c2cc(C)c(=O)n(C)c2c1 [Example 170] | 2.01 to 5 | < 50 | – | –
Cc1cc2c(N3CCCc4cc(-c5cnn(C)c5)c(C(F)F)cc43)cc(C3CCOCC3)cc2n(C)c1=O [Example 179] | 2.01 to 5 | < 50 | – | –
CNC(=O)C1CCN(c2cc3c(cc2C#N)N(c2cc(OC)cc4c2cc(C)c(=O)n4C)CCC3)CC1 [Example 181] | 2.01 to 5 | < 50 | – | –
COc1cc(N2CCCc3cc(N4CCN(C(C)=O)CC4)c(C#N)cc32)c2cc(C)c(=O)n(C)c2c1 [Example 182] | 2.01 to 5 | < 50 | – | –
CNC(=O)c1ccc(-c2cc3c(cc2C#N)N(c2cc(OC)cc4c2cc(C)c(=O)n4C)CCC3)cn1 [Example 183] | 2.01 to 5 | < 50 | – | –
CC1Cc2c(cc(N3CC[C@@H](O)C3)cc2N2CCCc3cc(-c4cnn(C)c4)c(C(F)F)cc32)N(C)C1=O (stereo partly drawn) [Example 193, 7-(Difluoromethyl)-7′-((R)-3-hydroxypyrrolidin-1-yl)-1′,3′-dimethyl-6-(1-methyl-1H-pyrazol-4-yl)-3,3′,4,4′-tetrahydro-2H-[1,5′-biquinolin]-2′(1′H)-one] | 2.01 to 5 | > 10 | – | –
